The record followed here is EP1129354B1, “A METHOD FOR DETERMINING A MIMOTOPE SEQUENCE” (PEPSCAN SYSTEMS B.V., priority 1998, dated 2000).

One assay deals with antibody. The assay can be described thus: Pepscan ELISA, lengthening and replacement analyses (Example-3). The class given is binding. The following applies: value is the antibody concentration. An excerpt: (§1) Lead peptides can also be derived from other type of libraries such as for example phage-display libraries.
(§2) In a replacement analysis the binding activity of complete series of substitutions analogs of lead peptides, in which each position is replaced by each of the other 19 natural L-amino acids, is investigated in detail. In addition, it is possible to use the 20 D-amino acids as well as other available non-natural amino acids. Substitutions that result in improved binding are combined into new sequences of building blocks. These new sequences are again tested in a 2nd replacement analysis. If necessary more rounds of replacement analyses are performed. After each round of a replacement analyses the antibody (or other soluble receptor) concentration can be lowered to obtain maximal binding activity (e.g. from 100 µg/ml to 0.01 µg/ml after 2 rounds of replacement-analyses, as shown in example-1).
(§3) Notes for the examples: • the 10 µg/ml, 1 µg/ml etc. denote the antibody concentration. • The line "improved position-01" etc. means that this change in amino acid (is underlined) improves binding activity in pepscan elisa at given antibody concentration. Positions that could not be improved are not mentioned (e.g. position-08 in first replacement-net of example-1, i.e. the original I at position 8 gives the highest activity).
In example-3, lead peptides were identified through phage-display. Adjacent cysteines/glycines were added to improve binding activity. After obtained activity multiple replacement analyses were done as discussed in example-1.
For orientation: In an ELISA, binding on a coated surface is turned into a signal by an enzyme label.
Consider CSDTHKGCG, for which the activity at entry is given as “activity at ≥ 5.0 µg/ml”. On to CSDTRKGC, for which the activity at result is “activity at ≥ 10.0 µg/ml”. On the same count and under the same terms, to CSDTRYGCG belongs “activity at ≥ 5.0 µg/ml”; to CSETRKGCG, “activity at ≥ 5.0 µg/ml”. On the same count and under the same terms, the entry for CTDTRKGCG is “activity at ≥ 5.0 µg/ml”. The same measure, in the same setting: the entry for CTETHFGCG is “activity at ≥ 0.5 µg/ml”; for CTETHYGCG it is “activity at ≥ 1.0 µg/ml”; for CTETKYGCG it is “activity at ≥ 0.5 µg/ml”.

For the substance CYETHYGCG, the activity at result was “activity at ≥ 0.5 µg/ml”. On the same count and under the same terms, the entry for CYETKFGCG is “activity at ≥ 0.1 µg/ml”; for CYETKFGNG it is “activity at ≥ 0.05 µg/ml”. With DYETKFGCG, the activity at entry was “activity at ≥ 0.05 µg/ml”. On the same count and under the same terms, the entry for DYETKFGNG is “activity at ≥ 0.01 µg/ml”.

In the next assay the test system is antibody. Description: Pepscan ELISA, replacement analyses (Example-2). The class given is binding. The settings on record: value is the antibody concentration, antibody binds a non-linear epitope.
With ANAPSAIGAFGL, the activity at result is listed as “activity at ≥ 5.0 µg/ml”.

For ANWPSAIGAFGL, the activity at result is “activity at ≥ 10.0 µg/ml”. Regarding ANWSSAIGAFGL, the activity at entry was “activity at ≥ 5.0 µg/ml”. Take ANWSSAIGAFKL: the activity at result is on record as “activity at ≥ 5.0 µg/ml”. On to AWWPSAIGAFGL, for which the activity at entry is “activity at ≥ 5.0 µg/ml”. As to HNWPSAIGAFGL, the activity at result is given as “activity at ≥ 5.0 µg/ml”.

As to HWASSAIGAFKL, the activity at entry is “activity at ≥ 1.0 µg/ml”. Same read-out and setting: the entry for HWASSAMGAFKL is “activity at ≥ 0.5 µg/ml”; for HWGSSAIGAFKL it is “activity at ≥ 0.5 µg/ml”. On to HYASSAIGAFKL, for which the activity at entry was “activity at ≥ 0.5 µg/ml”.

In the case of KWASSAIGAFKL, the activity at entry was “activity at ≥ 0.5 µg/ml”. Still for that read-out and setting: the entry for KYFSSAMGAFKL is “activity at ≥ 0.05 µg/ml”. On the same count and under the same terms, the entry for KYFSSGMGAFKL is “activity at ≥ 0.01 µg/ml”. Take KYGSSAMGAFKL: the activity at entry is listed as “activity at ≥ 0.1 µg/ml”. KYGSSGMGAFKL: the activity at result was “activity at ≥ 0.05 µg/ml”.

A further assay deals with antibody. The assay can be described thus: Pepscan ELISA, replacement analyses and lengthening (Example-4). The class given is binding. The settings on record: value is the antibody concentration.
Excerpt: In addition to random minipepscan libraries mimotopes can also be identified from standard pepscan libraries. These libraries contain all overlapping 12-mers (or shorter/longer) covering the linear sequence of a known protein (Slootstra et al., 1995a).
as §2, §3
In example-4, a lead peptide was identified through standard pepscan analysis, i.e. the antibody was tested on all overlapping 12-mers covering the linear sequence of the protein. The following two rounds of replacement analyses were done as discussed in example-1. In addition, the mimotope was lengthened to the left and right (3 amino acids, this can be further lengthened) through additional replacement analyses.
For the substance AIMIKLILVNFR, the activity at result is reported as “activity at ≥ 5.0 µg/ml”.

On to APPIKLIRVNYR, for which the activity at result is listed as “activity at ≥ 0.5 µg/ml”. Consider AVMIKLILVNFR, for which the activity at result is listed as “activity at ≥ 5.0 µg/ml”. Consider AVMIKLILVNYR, for which the activity at entry is listed as “activity at ≥ 5.0 µg/ml”. On the same count and under the same terms, to AVMIKLIRVNFR belongs “activity at ≥ 5.0 µg/ml”.

Consider AVPIKLILVNFR, for which the activity at result is listed as “activity at ≥ 5.0 µg/ml”. On the same count and under the same terms, the entry for “IKLIRVNYRCEN [combination impr., replacement analysis-IV]” is “activity at ≥ 0.1 µg/ml”. Same read-out and setting: the entry for IKLIRVNYRCQP is “activity at ≥ 0.5 µg/ml”. For the substance IKLIRVNYRMEP, the activity at result is on record as “activity at ≥ 0.5 µg/ml”.

As for IKLIRVNYRMQN, the activity at entry is reported as “activity at ≥ 0.5 µg/ml”.

On to IKLIRVNYRMQP [lengthened right], for which the activity at entry is given as “activity at ≥ 1.0 µg/ml”. Still for that read-out and setting: to KIWYPPIKLIRV belongs “activity at ≥ 0.5 µg/ml”; to KIYYPPIKLIRV [lengthened left], “activity at ≥ 1.0 µg/ml”. With KIYYPPISLIRV, the activity at entry is listed as “activity at ≥ 0.5 µg/ml”. Same read-out and setting: to KPYYPPIKLIRV belongs “activity at ≥ 0.5 µg/ml”; to RIYYPPIKLIRV, “activity at ≥ 0.5 µg/ml”. The same measure, in the same setting: the entry for “RPWYPPISLIRV [combination impr., replacement analysis-III]” is “activity at ≥ 0.1 µg/ml”; for “RPWYPPISLIRVNYRCEN [combination total, 18-mer mimotope]” it is “activity at ≥ 0.01 µg/ml”; for RVMIKLILVNFR it is “activity at ≥ 10.0 µg/ml”. Turning to YIPIKLIRVNYR, the activity at entry was “activity at ≥ 0.5 µg/ml”. Regarding YPPIKLIRVNYR, the activity at result is “activity at ≥ 0.1 µg/ml”.

For a further assay, the system named is antibody. Description: Pepscan ELISA, replacement analyses of three leads and consensus (Example-6). The following applies: value is the antibody concentration. Type of assay: binding.
Excerpt: as §1, §2, §3
In example-6, different lead peptides were used to identify a consensus sequence. Each lead peptide was used in multiple replacement analyses (two rounds).
On to ANAPSA, for which the activity at result is listed as “: activity at ≥ 5.0 µg/ml”. In the case of ANWPSA, the activity at entry was “: activity at ≥ 10.0 µg/ml”. Turning to ANWSSA, the activity at entry is listed as “: activity at ≥ 5.0 µg/ml”.

As to AWWPSA, the activity at result is on record as “: activity at ≥ 5.0 µg/ml”. Turning to HNWPSA, the activity at entry is listed as “: activity at ≥ 5.0 µg/ml”. In the case of HWASPA, the activity at result is given as “: activity at ≥ 0.5 µg/ml”. Turning to KLATRW, the activity at entry is “: activity at ≥ 5.0 µg/ml”.

Turning to KLITRW, the activity at result is given as “: activity at ≥ 10.0 µg/ml”.

For KLITRY, the activity at result is listed as “: activity at ≥ 5.0 µg/ml”. The same measure, in the same setting: to KSITRW belongs “: activity at ≥ 5.0 µg/ml”; to NICHWA, “: activity at ≥ 1.0 µg/ml”; to NICSWS, “: activity at ≥ 5.0 µg/ml”. The same measure, in the same setting: the entry for NVCHWA is “: activity at ≥0.5 µg/ml”; for NVCHWS it is “: activity at ≥ 5.0 µg/ml”; for NVCSWA it is “: activity at ≥ 5.0 µg/ml”. Take NVCSWS: the activity at result was “: activity at ≥ 10.0 µg/ml”.

For SLITRW, the activity at entry is given as “: activity at ≥ 5.0 µg/ml”. Same read-out and setting: to SSATRY belongs “: activity at ≥ 1.0 µg/ml”.

Regarding YICHWA, the activity at entry is recorded as “: activity at ≥0.5 µg/ml”.

On to YVCHWA, for which the activity at entry is “: activity at ≥ 0.1 µg/ml”.

As to YVCHWASSATRY, the activity at result is on record as “activity at 0.01 µg/ml”.

For a further assay, the system named is antibody. Description: Pepscan ELISA, replacement analyses of consensus sequence (Example-5). The class given is binding. The settings on record: value is the antibody concentration. The protocol:
All 4550 dodecapeptides were ranked according to their binding activity. According to their ranking consensus sequences and motifs are identified. Initial methods of lead optimization that only use the sequence of the top 50 molecules have been described in Slootstra et al.(1995b; 1997). The present method uses all 4550 sequences. Firstly, the frequency and/or distribution of single amino acids and the dipeptide motifs OO, dipeptide motifs OXO and dipeptide motifs OXXO is determined using Microsoft Excel 4.0 (O, one of the 20 natural L-amino acids; X, any residue). Secondly, properties of the amino acids (hydrophobicity, charge etc.) are included in the analysis. […] This is done by substitution of building blocks that inhibit activity and include building blocks that improve binding activity.
as §2, §3
In example-5, a set of similar lead peptides were used to identify a consensus sequence. The consensus sequences were identified as discussed in materials and method. This sequence was used in the replacement analyses. ALIGNMENT OF LEAD PEPTIDES: • QNNMKLFRGCVP • RGIKWNEMTDQW • KLQQNPTFYPPV • TNNCKEFAGIVP • RGILTNIMKDQW • IVQNNPKFFRGA
As for ILQNNMKDFRG, the activity at entry is recorded as “activity at ≥ 1.0 µg/ml”.

Regarding ILQNNMKDWRG, the activity at entry is recorded as “activity at ≥ 0.5 µg/ml”. In the case of ILQNNMPDFRG, the activity at entry was “activity at ≥ 0.5 µg/ml”. For ILTNNMGDWRG, the activity at entry is “activity at ≥ 0.05 µg/ml”.

Take ILTNNMGDWYG: the activity at result is on record as “activity at ≥ 0.01 µg/ml”. As for ILTNNMKDFRG, the activity at result is “activity at ≥ 0.5 µg/ml”. As for ILTNNMPDWRG, the activity at entry was “activity at ≥ 0.1 µg/ml”.

For the substance ILTNNMPDWYG, the activity at result is “activity at ≥ 0.05 µg/ml”.

A further assay has as its system Monoclonal antibody 26/9. The assay can be described thus: PEPSCAN-based ELISA, binding of peptides to antibody 26/9 (Example-1). The following applies: value is the antibody 26/9 concentration at which the peptide shows binding activity in pepscan elisa.
For the substance CGCAAENIRCYA, the activity at result is given as “activity at ≥ 10.0 µg/ml”. CGCAAMDIRCYA: the activity at result is listed as “activity at ≥ 10.0 µg/ml”. On to CGCAAMNIRNYA, for which the activity at entry is recorded as “activity at ≥ 10.0 µg/ml”. Same read-out and setting: to CGCAANINIMCYA belongs “activity at ≥ 10.0 µg/ml”. Turning to CGCAEMNIRCYA, the activity at result is given as “activity at ≥ 10.0 µg/ml”. The same measure, in the same setting: the entry for CGCEAMMIRCYA is “activity at ≥ 10.0 µg/ml”; for CGDAAMNIRCYA it is “activity at ≥ 10.0 µg/ml”; for CMCAAMNIRCYA it is “activity at ≥ 10.0 µg/ml”. Still for that read-out and setting: the entry for EGCAAMNIRCYA is “activity at ≥ 10.0 µg/ml”; for EMDEEEDIMDYA it is “activity at ≥ 0.1 µg/ml”. Take EMDEEEDIPNYA: the activity at result is on record as “activity at ≥ 0.1 µg/ml”. Regarding EMDEEEDVMNYA, the activity at result was “activity at ≥ 0.1 µg/ml”.
